Data published in article PMC5799093, “Proceedings of Réanimation 2018, the French Intensive Care Society International Congress” (Annals of Intensive Care, 2018).
Where two headings read alike, the source gives them in different places.

Columns and labels:
anti-Xa activity = experiment: Pharmacokinetics of unfractionated heparin (anti-Xa activity) in children under ECMO (P-171); type: in vivo, human (children)
Description: Patients and methods: This is a single center retrospective study from March 2015 to September 2016. Were included children (< 18 years old age) who were under ECMO for refractory hemodynamic failure related to (i) myocarditis or (ii) septic shock. Anti-Xa activity time-courses were analyzed using a non linear mixed effects approach with Monolix version 2016R.

Candida isolates = experiment: Antifungal susceptibility of Candida isolates, Fungitest broth dilution; type: cell-based, Candida spp.
Description: Patients and methods: Our study is a retrospective review of 17 severely burned patients admitted to the burn unit of the Ben Arous Traumatology and Burns Center with one or more positive culture sites for Candida, during the 16-month period from May 2016 through August 2017. A total of 42 isolates were thus obtained. […] Since echinocandin and anidulafungine were recently introduced in Tunisia, the susceptibility to these antifungal classes was tested for only one patient from our cohort.

[1] = Beta-lactam plasma concentrations in children with severe sepsis or septic shock (HPLC); details: current standard dosing
[2] = test system: carbapenemase-producing Enterobacteriaceae; experiment: Antibiotic susceptibility of Enterobacteriaceae with decreased susceptibility to carbapenems; type: cell-based; details: for resistant rate: CA-SFM 2015
[3] = test system: Extended spectrum betalactamase producing Enterobacteriaceae; experiment: Antibiotic resistance of ESBL producing Enterobacteriaceae (P-147); type: cell-based; details: isolates 2015 and 2016
[4] = Population pharmacokinetics of cefotaxime and desacetylcefotaxime in critically ill children (P-168); type: in vivo, human (children)
Description: Patients and methods: All children aged less than 18 years, weighing more than 2.5 kg, and receiving intermittent CTX infusions were included. CTX and D-CTX were quantified by high performance liquid chromatography. Pharmacokinetics were described using the non-linear mixed effect modelling software MONOLIX. Monte Carlo simulations were used to optimize dosing regimen, in order to maintain serum concentration above the target concentration (defined at 2 mg L^−1) 100% of the time during the dosing interval.

[5] = Delayed neuropsychiatric sequelae after carbon monoxide poisoning in outpatients
[6] = test system: patients with severe alcohol withdrawal syndrome; experiment: Continuous-infusion midazolam for severe alcohol withdrawal syndrome, complications; type: in vivo
From the text: Patients and methods: We retrospectively reviewed the medical records of all patients hospitalized for alcohol withdrawal syndrome between 2006 and 2016. Only those who received continous-infusion of BZD, associated with close clinical monitoring and the evaluation of RASS and Cushman scores, without systematic recourse to mechanical ventilation, were included.

[7] = Acute amitriptylin and clomipramine poisonings in the ICU, clinical features and pharmacokinetics; details: median; AMI [0.4 + 1.4], dose 1.5 g; CLO [0.5 + 1.4], dose 3.0 g
[8] = Residual serum concentrations of piperacillin and amoxicillin and neurological disorders (HPLC MS); type: in vivo, critically ill patients
Description: Patients and methods: This study was carried out retrospectively during the period 01.01.2015 to 08.02.2017, in patients hospitalized in the medical ICU-CHU Rouen with PTM.

[9] = Acute olanzapine poisoning in ICU (P-182); type: in vivo, human
Description: Patients and methods: Retrospective analysis of all cases of olanzapine intoxication admitted in 12-bed teaching ICU between January 2013 and Decembre 2017. Inclusion criteria were patient age ≥ 14 year, acute olanzapine intoxication, the intoxication severity was assessed by the Poisoning Severity Score (PSS) of the European Association of Poison Centres and Clinical Toxicologists. The evaluation of electrocardiograms was performed in the first day of hospitalization. The durations of QRS and QTc was measured and arrhythmias and conduction disorders was identified.

Acinetobacter baumannii = type: cell-based
Description: Patients and methods: From January 2012 to December 2016, a total of 2,182 non repetitive strains were isolated from blood cultures. Incubation of blood culture vials and the detection of bacterial growth were performed by the BACTEC system. All Isolated organisms were identified on the basis of standard microbiological techniques. Antibiotic susceptibility testing was carried out by the agar disk diffusion method, and susceptibility results were interpreted using clinical breakpoints according to CA-SFM 2013 and 2015 guidelines. Data were analyzed using the SIR-system. Minimum inhibitory concentrations of colistin, imipenem and vancomycin were determined using the Etest® method (bioMérieux).

Pseudomonas aeruginosa = experiment: Disk diffusion susceptibility of P. aeruginosa isolated from burned patients (P-48); type: cell-based; details: 485 strains from burned patients 2012-2015, disk diffusion, FSM breakpoints
[10] = test system: cardiogenic shock patients; experiment: OPTIMA CC double-blind randomized trial, epinephrine vs norepinephrine in cardiogenic shock after myocardial infarction; type: in vivo
From the text: Patients and methods: Multicenter, double-blind, randomized trial in 8 french ICU. Cardiogenic shock patients due to myocardial infarction treated by PCI were randomized to receive epinephrine or norepinephrine to maintain MAP at 70 mmHg. Dobutamine was introduced at the physician discretion according to a combination of parameters—echocardiographic parameters, cardiac index, lactate clearance, SVO2 and Swan-Ganz derived parameters.

[11] = Cyproheptadine poisoning, retrospective series (P-180); type: in vivo, human
Description: Patients and methods: Retrospective study was performed between January 2008 and APRIL 2017. Epidemiological data clinical data and outcome were reviewed.

[12] = median (range), 49 children, one compartment model

## unfractionated heparin
anti-Xa activity; 12 children under ECMO, one-compartment, scaled to 70 kg
  typical clearance (CLTYP): 2.42 L/h
anti-Xa activity; 12 children under ECMO, scaled to 70 kg
  typical volume of distribution (VTYP): 5.1 L
anti-Xa activity; 37 of 214 samples
  samples with anti-Xa activity > 0.6 IU mL: 17%
anti-Xa activity; 81 of 214 samples
  samples with anti-Xa activity < 0.4 IU mL: 38%
anti-Xa activity; 96 of 214 samples, 12 children
  samples with anti-Xa activity in the target (0.4 to 0.6 IU mL): 45%
anti-Xa activity; of 12
  bleeding: 2 children
  thrombosis: 4 children

## OC(Cn1cncn1)(Cn1cncn1)c1ccc(F)cc1F [fluconazole]
Candida isolates
  intermediate isolates: 11.1%
  resistant isolates: 11.1%
  susceptible isolates: 77.8%

## Cc1nnc(SCC2=C(C(=O)O)N3C(=O)[C@@H](NC(=O)Cn4cnnn4)[C@H]3SC2)s1 [cefazoline, cefazolin]
[1]
  patients with insufficient plasma concentration: 25%

## C[C@H]1[C@H](NC(=O)/C(=N\OC(C)(C)C(=O)O)c2csc(N)n2)C(=O)N1S(=O)(=O)O [aztreonam]
[2]
  resistant rate: 67%

## CCn1cc(C(=O)O)c(=O)c2cc(F)c(N3CCNCC3)cc21 [Norfloxacin]
[3]
  rate of resistance: 89.13%

## CO/N=C(\C(=O)N[C@@H]1C(=O)N2C(C(=O)O)=C(CO)CS[C@H]12)c1csc(N)n1 [D-CTX, desacetylcefotaxime]
[4]; [12]
  D-CTX clearance: 3.2 (0.6–16.3) L h^−1

## CNC(C)C1CCC(N)C(OC2C(N)CC(N)C(OC3OCC(C)(O)C(NC)C3O)C2O)O1 (stereo not shown) [Gentamicin]
[3]
  rate of resistance: 50%

## C[C@@H](O)[C@H]1C(=O)N2C(C(=O)O)=C(S[C@@H]3CN[C@H](C(=O)N(C)C)C3)[C@H](C)[C@H]12 [meropenem]
[1]
  patients with insufficient plasma concentration: 50%

## CO/N=C(\C(=O)N[C@@H]1C(=O)N2C(C(=O)O)=C(COC(C)=O)CS[C@H]12)c1csc(N)n1 [CTX, cefotaxime]
[4]; intermittent infusions, target 2 mg L^−1
  target attainment of calculated residual concentrations: no patient succeeds to attain the target
[4]; [12]
  volume of distribution: 3.3 (0.85–20) L
[4]; median (range), 49 children, one compartment model, MONOLIX, HPLC
  CTX clearance: 0.97 (0.3–7.1) L h^−1

## [C-]#[O+] [CO, Carbon monoxide]
[5]; 83 patients
  mean serum HbCO level on admission: 15 ± 8%
[5]; among identified disorders
  persistent headaches: 39%
[5]; in vivo
  anxiety-depressive disorders: 39%
  cognitive disorders: 22%
  irritability: 22%
  mean onset time of symptoms: 5 ± 3 months
[5]; telephone contact at 16 ± 9 months
  prevalence of patients with delayed neuropsychiatric sequelae: 26%

## CO/N=C(\C(=O)N[C@@H]1C(=O)N2C(C(=O)O)=C(COC(C)=O)CS[C@H]12)c1csc(N)n1 [cefotaxime]
[2]
  resistant rate: 97%

## Cc1ncc2n1-c1ccc(Cl)cc1C(c1ccccc1F)=NC2 [midazolam]
[6]; IC 95% (2.11–168.15)
  OR of intubation and or pneumonia for maximum perfusion velocity > 8 mg h: 18.83
[6]; continuous infusion, median maximum 8 mg h, n = 104
  patients developing pneumonia and or requiring intubation: 12%
[6]; n = 104
  cardiac arrest and death: No cardiac arrest and death was observed
  patients with seizures: 8%

## CC(=O)N1CCN(c2ccc(OCC3COC(Cn4ccnc4)(c4ccc(Cl)cc4Cl)O3)cc2)CC1 (stereo not shown) [ketoconazole]
Candida isolates
  intermediate isolates: 40.7%

## CN(C)CCCN1c2ccccc2CCc2ccc(Cl)cc21 [CLO, clomipramine]
[7]
  plasma concentration: 700 ng/mL

## CCC(C)n1ncn(-c2ccc(N3CCN(c4ccc(OCC5COC(Cn6cncn6)(c6ccc(Cl)cc6Cl)O5)cc4)CC3)cc2)c1=O (stereo not shown) [itraconazole]
Candida isolates
  intermediate isolates: 81.5%

## CC1(C)S[C@@H]2[C@H](NC(=O)[C@H](N)c3ccc(O)cc3)C(=O)N2[C@H]1C(=O)O [amoxicillin]
[8]; 80% specificity and sensitivity
  residual concentration associated with occurrence of neurological disorders: greater than 40 mg L^−1
[8]; HPLC MS
  residual serum concentration, patients with neurological disorders or wakefulness delays: 157 ± 72 mg L^−1
  residual serum concentration, patients without neurological disorders: 35.8 ± 13.0 mg L^−1
[1]
  patients with insufficient plasma concentration: 86%

## Cc1cc2c(s1)Nc1ccccc1N=C2N1CCN(C)CC1 [olanzapine, Olanzapine]
human, in vivo
  QRS enlargement on the ECG: 10%
  QT widening: 23%
  abolished tendon reflexes: 31%
  increased tendon reflexes: 28%
  mydriasis: 10%
  myorelaxation: 68%
  myosis: 39%
  seizures: No seizure was observed
Median [0.185 + 0.820], ingested dose 200 mg [110 + 333], n = 71
  plasma concentration on admission: 310 ng/mL
Median [percentiles 25 + 75], multidrug ingestion
  Glasgow coma score: 4 [3 + 8]
non-compartmental analysis
  elimination in overdose: prolonged olanzapine elimination at elevated concentrations
Patients with pre-hospital cardiac arrest
  died in the ICU: 4%
[9]; 5 cases
  mean duration of prolonged QTc: 460 ± 28 ms
[9]; 8 patients, 3 cases
  Poisoning Severity Score moderate, monointoxication: 37.5%
[9]; 8 patients, 4 cases
  Poisoning Severity Score severe, monointoxication: 50%
[9]; 24 patients
  Poisoning Severity Score fatal: 1 case
[9]; 24 patients, 9 cases
  Poisoning Severity Score moderate: 37.5%
[9]; 24 patients, 14 cases
  Poisoning Severity Score severe: 58%
[9]; n = 8 of 24
  agitation: 33%
[9]; n = 15 of 24
  miosis: 62%
  tachycardia: 62%
[9]; of 24
  Coma Glosgow Scale < 12: 14 cases
  mechanical ventilation required: 58%
  prolonged QTc: 5 cases

## CO[C@H]1/C=C/O[C@@]2(C)Oc3c(C)c(O)c4c(O)c(c(/C=N/N5CCN(C)CC5)c(O)c4c3C2=O)NC(=O)/C(C)=C\C=C\[C@H](C)[C@H](O)[C@@H](C)[C@@H](O)[C@@H](C)[C@H](OC(C)=O)[C@@H]1C [rifampicin]
Acinetobacter baumannii; by 2016
  resistance rate: 67%
Acinetobacter baumannii; in 2014
  resistance rate: 15%

## C[C@@H]1O[C@@H]1P(=O)(O)O [fosfomycin]
[2]; colistin excepting with Proteus
  susceptibility: 65%

## CC1(C)S[C@@H]2[C@H](NC(=O)[C@H](C(=O)O)c3ccsc3)C(=O)N2[C@H]1C(=O)O [ticarcillin]
Pseudomonas aeruginosa
  strains resistant: 69%

## Clc1ccc(COC(Cn2ccnc2)c2ccc(Cl)cc2Cl)c(Cl)c1 (stereo not shown) [miconazole]
Candida isolates
  intermediate isolates: 33.3%

## C[C@@H]1[C@H](O)[C@@H](C)/C=C/C=C/C=C/C=C/C=C/C=C/C=C/[C@H](O[C@@H]2O[C@H](C)[C@@H](O)[C@H](N)[C@@H]2O)C[C@@H]2O[C@](O)(C[C@@H](O)C[C@@H](O)[C@H](O)CC[C@@H](O)C[C@@H](O)CC(=O)O[C@H]1C)C[C@H](O)[C@H]2C(=O)O [amphotericin B]
Candida isolates
  resistant strains: Only one strain was resistant

## CNC[C@H](O)c1ccc(O)c(O)c1 [epinephrine]
[10]; H2 to H24
  arterial pH and lactate: lactic acidosis from H2 to H24
[10]; epinephrine vs norepinephrine group
  cardiac index and cardiac power index: increased significantly more
[10]; in vivo
  ECMO use: 11%
  cardiac double product (surrogate of myocardial oxygen consumption): increased
  heart rate evolution: increased significantly
  incidence of arrhythmia: 41%
  mortality: 52%
[10]; titrated to MAP 70 mmHg, epinephrine n = 27, norepinephrine n = 30
  incidence of refractory shock: 37%

## CN1CCC(=C2c3ccccc3C=Cc3ccccc32)CC1 [cyproheptadine]
[11]; 56 patients
  delirium: 20%
  outcome: favorable in all cases
  patients with peripheral anti-cholinergic symptoms: Forty two
[11]; 56 patients, mean ingested dose 94 mg, range [1–14]
  median delay of symptoms onset: 3 h
[11]; in vivo
  correlation between coma and assumed ingested dose: no correlation
[11]; six ventilated patients, ± 4
  mean duration of mechanical ventilation: 17 h
